Measurements reported in ChEMBL document CHEMBL3774317, “Design and synthesis of novel tamoxifen analogues that avoid CYP2D6 metabolism” (Eur J Med Chem, 2016).

How the values were obtained:
[1] = Cytotoxicity against human DU145 cells assessed as growth inhibition after 48 hrs by SRB assay; assay type: functional; settings: DU-145, 48 h
[2] = system: CCRF-CEM; test: Cytotoxicity against human CCRF-CEM cells assessed as growth inhibition after 48 hrs by SRB assay; assay type: functional
[3] = system: 786-0; test: Cytotoxicity against human 786-0 cells assessed as growth inhibition after 48 hrs by SRB assay; assay type: functional; settings: 786-0, 48 h
[4] = system: NCI-H522; test: Cytotoxicity against human NCI-H522 cells assessed as growth inhibition after 48 hrs by SRB assay; assay type: functional; settings: NCI-H522, 48 h
[5] = system: SR; test: Cytotoxicity against human SR cells assessed as growth inhibition after 48 hrs by SRB assay; assay type: functional
[6] = system: SK-MEL-2; test: Cytotoxicity against human SK-MEL-2 cells assessed as growth inhibition after 48 hrs by SRB assay; assay type: functional; settings: SK-MEL-2, 48 h
[7] = Cytotoxicity against human LOXIMVI cells assessed as growth inhibition after 48 hrs by SRB assay; assay type: functional; settings: LOX IMVI
[8] = Cytotoxicity against human OVCAR8 cells assessed as growth inhibition after 48 hrs by SRB assay; assay type: functional; settings: OVCAR-8, 48 h
[9] = system: MCF7; test: Antiproliferative activity against human MCF7 cells after 72 hrs by MTT assay; settings: mcf7
[10] = Cytotoxicity against human HL-60(TB) cells assessed as growth inhibition after 48 hrs by SRB assay; assay type: functional; settings: HL-60, 48 h
[11] = system: MDA-MB-231; test: Cytotoxicity against human MDA-MB-231 cells assessed as growth inhibition after 48 hrs by SRB assay; assay type: functional; settings: MDA-MB-231, 48 h
[12] = system: NCI-H322M; test: Cytotoxicity against human NCI-H322M cells assessed as growth inhibition after 48 hrs by SRB assay; assay type: functional
[13] = system: A498; test: Cytotoxicity against human A498 cells assessed as growth inhibition after 48 hrs by SRB assay; assay type: functional; settings: A498, 48 h
[14] = Cytotoxicity against human PC3 cells assessed as growth inhibition after 48 hrs by SRB assay; assay type: functional; settings: PC-3, 48 h
[15] = system: M14; test: Cytotoxicity against human M14 cells assessed as growth inhibition after 48 hrs by SRB assay; assay type: functional; settings: M14, 48 h
[16] = Cytotoxicity against human SNB19 cells assessed as growth inhibition after 48 hrs by SRB assay; assay type: functional; settings: SNB-19, 48 h
[17] = system: SK-MEL-28; test: Cytotoxicity against human SK-MEL-28 cells assessed as growth inhibition after 48 hrs by SRB assay; assay type: functional; settings: SK-MEL-28, 48 h
[18] = system: MDA-MB-468; test: Cytotoxicity against human MDA-MB-468 cells assessed as growth inhibition after 48 hrs by SRB assay; assay type: functional; settings: MDA-MB-468, 48 h
[19] = Cytotoxicity against human OVCAR4 cells assessed as growth inhibition after 48 hrs by SRB assay; assay type: functional; settings: OVCAR-4, 48 h
[20] = Cytotoxicity against human SF295 cells assessed as growth inhibition after 48 hrs by SRB assay; assay type: functional; settings: SF-295, 48 h
[21] = Cytotoxicity against human SKOV3 cells assessed as growth inhibition after 48 hrs by SRB assay; assay type: functional; settings: SK-OV-3, 48 h
[22] = Cytotoxicity against human HCT15 cells assessed as growth inhibition after 48 hrs by SRB assay; assay type: functional; settings: HCT-15, 48 h
[23] = Cytotoxicity against human OVCAR5 cells assessed as growth inhibition after 48 hrs by SRB assay; assay type: functional; settings: OVCAR-5, 48 h
[24] = Cytotoxicity against human IGROV1 cells assessed as growth inhibition after 48 hrs by SRB assay; assay type: functional; settings: IGROV-1, 48 h
[25] = system: MDA-MB-435; test: Cytotoxicity against human MDA-MB-435 cells assessed as growth inhibition after 48 hrs by SRB assay; assay type: functional; settings: MDA-MB-435, 48 h
[26] = molecular target: T1, Estrogen receptor (Homo sapiens, UniProt P03372)
T1 sequence (P03372 whole entry): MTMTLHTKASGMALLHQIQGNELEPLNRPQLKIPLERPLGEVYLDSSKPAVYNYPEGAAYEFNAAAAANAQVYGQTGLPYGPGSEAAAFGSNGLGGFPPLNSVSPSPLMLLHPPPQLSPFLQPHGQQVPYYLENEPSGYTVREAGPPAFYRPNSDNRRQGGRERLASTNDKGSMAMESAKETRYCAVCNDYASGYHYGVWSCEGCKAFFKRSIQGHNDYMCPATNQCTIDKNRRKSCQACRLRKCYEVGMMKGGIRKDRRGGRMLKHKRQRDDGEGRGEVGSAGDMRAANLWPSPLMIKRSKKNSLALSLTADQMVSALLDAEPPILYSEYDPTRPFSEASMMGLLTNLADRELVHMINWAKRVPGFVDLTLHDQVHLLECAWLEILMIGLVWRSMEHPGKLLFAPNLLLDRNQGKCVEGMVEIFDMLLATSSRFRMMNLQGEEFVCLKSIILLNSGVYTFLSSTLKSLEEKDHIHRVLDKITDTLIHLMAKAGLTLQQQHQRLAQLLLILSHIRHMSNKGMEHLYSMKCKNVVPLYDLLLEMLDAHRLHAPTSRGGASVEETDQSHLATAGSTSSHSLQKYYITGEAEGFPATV
Description: Displacement of [3H]-E2 from human ER-alpha incubated for 16 to 20 hrs by liquid scintillation counting analysis

[27] = Cytotoxicity against human COLO205 cells assessed as growth inhibition after 48 hrs by SRB assay; assay type: functional; settings: COLO 205, 48 h
[28] = read-out: LC50 (the source's name)

C/C(=C(/c1ccc(O)cc1)c1ccc(OCCN2CCCC2)cc1)c1ccccc1
GI50 [1]: 9.72 µM | LC50 [1]: 46.3 µM | TGI [1]: 21.4 µM | GI50 [2]: 3.2 µM | TGI [2]: 9.85 µM | CC50 [2, 28]: 50 µM | GI50 [3]: 1.86 µM | TGI [3]: 4.09 µM | CC50 [3, 28]: 9 µM | GI50 [4]: 2.1 µM | TGI [4]: 5.09 µM | CC50 [4, 28]: 18.6 µM | GI50 [5]: 1.93 µM | TGI [5]: 5.75 µM | CC50 [5, 28]: 40.6 µM | GI50 [6]: 1.97 µM | TGI [6]: 3.95 µM | CC50 [6, 28]: 7.94 µM | GI50 [7]: 1.72 µM | LC50 (concentration killing 50% of cells) [7]: 6.29 µM | TGI [7]: 3.29 µM | GI50 [8]: 5.73 µM | TGI [8]: 23.1 µM | CC50 [8, 28]: 77.2 µM | IC50 [9]: < 1 µM | GI50 [10]: 2.04 µM | TGI [10]: 4.97 µM | CC50 [10, 28]: 23.4 µM | GI50 [11]: 3.51 µM | LC50 [11]: 45.7 µM | TGI [11]: 8.4 µM | GI50 [12]: 5.12 µM | TGI [12]: 18.6 µM | CC50 [12, 28]: 47 µM | GI50 [13]: 1.67 µM | LC50 [13]: 38.5 µM | TGI [13]: 8.49 µM | GI50 [14]: 4.28 µM | LC50 [14]: 40.1 µM | TGI [14]: 14.7 µM | GI50 [15]: 1.88 µM | TGI [15]: 4.08 µM | CC50 [15, 28]: 8.86 µM | GI50 [16]: 2.95 µM | TGI [16]: 8.1 µM | CC50 [16, 28]: 42.2 µM | GI50 [17]: 1.65 µM | LC50 (concentration killing 50% of starting cells) [17]: 7.05 µM | TGI [17]: 3.41 µM | GI50 [18]: 1.84 µM | TGI [18]: 4.47 µM | CC50 [18, 28]: 13 µM | GI50 [19]: 4.7 µM | LC50 [19]: 43.3 µM | TGI [19]: 17.5 µM | GI50 [20]: 1.95 µM | LC50 (concentration killing 50% of cells) [20]: 8.99 µM | TGI [20]: 4.19 µM | GI50 [21]: 3.25 µM | TGI [21]: 13 µM | CC50 [21, 28]: 36.9 µM | GI50 [22]: 1.81 µM | LC50 (concentration killing 50% of cells) [22]: 14.4 µM | TGI [22]: 4.64 µM | GI50 [23]: 7.99 µM | LC50 (concentration killing 50% of cells) [23]: 54.2 µM | TGI [23]: 22.5 µM | GI50 [24]: 6.8 µM | TGI [24]: 27 µM | CC50 [24, 28]: 90.7 µM | GI50 [25]: 1.88 µM | TGI [25]: 4.4 µM | CC50 [25, 28]: 10.8 µM | IC50 [26]: 0.0008 µM | GI50 [27]: 1.7 µM | TGI [27]: 3.38 µM | CC50 [27, 28]: 6.73 µM
